“Also recorded” adds a separate entry of the source.
Assays:
[1] = system: gap junction communication between neurons and satellite glial cells in the trigeminal ganglion; test: Dye coupling studies (True Blue) of neuron-satellite glia gap junction signalling in trigeminal ganglion after TNF-α and capsaicin; type: in vivo, Sprague Dawley rats; settings: 10 mg/kg i.p. pre-treatment prior to TNF-α then capsaicin; V1 and V2 regions of ganglia
Description: (§1) Sprague Dawley rats injected with True Blue were used to localize neuronal cell bodies in the ganglion and study neuron-glia signalling via gap junctions in the trigeminal ganglion. Dye coupling studies were conducted under basal conditions and in response to tumour necrosis factor-α injection into the whisker pad and/or capsaicin injection into the eyebrow. Changes in connexin 26 and active p38 levels were determined by immunohistochemistry.
(§2) In addition, the effect of tonabersat prior to chemical stimulation on gap junction activity and expression of connexins and active p38 was investigated.
Young male rats (200-225 g) were brought to the lab and kept in a quiet environment for about 30 minutes. Rats were anesthetized by an intraperitoneal (i.p.) injection of 0.3 ml of ketamine and xylazine solution (800 mg and 60 mg in 10 ml, respectively; Sigma, St. Louis, Mo.). […] Initially, rats were injected with a fluorescent dye, True Blue (25 μl, 2 mg/ml in dimethyl sulfoxide, DMSO; Invitrogen, Eugene, Oreg.) in the whisker pad or eyebrow regions to retrogradely label neuronal cell bodies within the V1 and V2 regions of the trigeminal ganglion. Bilateral injections were performed using a 50 μL Hamilton syringe (Hamilton Company, Reno, Nev.) and a 261/2 G needle (Becton Dickinson, FranklinLakes, N.J.). […]

[2] = system: connexin 26; test: Immunohistochemistry of connexin 26 in trigeminal ganglia after TNF-α and capsaicin; type: in vivo, Sprague Dawley rats; settings: 10 mg/kg i.p. pre-treatment
Description: as §1, §2
Ganglia were collected from untreated animals or animals injected with TNF-α, capsaicin, or TNF-α and capsaicin as described above. Sections were fixed using 4% paraformaldehyde for 60 minutes, permeabilized with 0.3% Triton-X100 for 60 minutes, and then incubated in 5% donkey serum for another 60 minutes. Sections were then incubated overnight at 4° C. with primary antibodies against connexin 26 (1:500 in PBS; Chemicon, Temecula, Calif.) or active p38 MAP kinase (1:200; Cell Signaling Technology, Danvers, Mass.). […]

[3] = system: active p38 MAP kinase; test: Immunohistochemistry of active p38 in trigeminal ganglia after TNF-α and capsaicin; type: in vivo, Sprague Dawley rats; settings: 10 mg/kg i.p. pre-treatment, neurons and satellite glial cells in V1 and V2 regions, compared to TNF-α and capsaicin treated animals
Description: as §1, §2
Ganglia were collected from untreated animals or animals injected with TNF-α, capsaicin, or TNF-α and capsaicin as described above. Sections were fixed using 4% paraformaldehyde for 60 minutes, permeabilized with 0.3% Triton-X100 for 60 minutes, and then incubated in 5% donkey serum for another 60 minutes. Sections were then incubated overnight at 4° C. with primary antibodies against connexin 26 (1:500 in PBS; Chemicon, Temecula, Calif.) or active p38 MAP kinase (1:200; Cell Signaling Technology, Danvers, Mass.). Immunoreactive proteins were visualized following incubation with Rhodamine Red Xconjugated donkey anti-rabbit antibodies (diluted 1:100 in PBS, Jackson Immuno-Research Laboratories, West Grove, Pa.) for 1 hour at room temperature and then mounted in Vectashield medium (H-1200) containing 4′,6 diamidino-2-phenylindole (DAPI) to allow for identification of neuronal and glial cell nuclei. As a control, some sections were incubated for 1 hour at room temperature with only the Rhodamine Red Xconjugated anti-rabbit antibodies. Images were collected as described above.
To determine whether TNF-α sensitization of capsaicin-responsive neurons could lead to increased expression of p38, animals were injected with TNF-α, capsaicin, or both agents and ganglion sections stained for the active phosphorylated form of p38. […]

[4] = system: trigeminal nerve; settings: Parsons et al., Brit. J. Pharmacol. 2001, cited from earlier work

CC(=O)c1ccc2c(c1)[C@H](NC(=O)c1ccc(F)c(Cl)c1)[C@H](O)C(C)(C)O2 [tonabersat, cis-6-acetyl-4-(S)-(3-chloro-4-fluorobenzoylamino)-3,4-dihydro-2,2-dimethyl-2H-1-benzopyran-3-(S)-ol]
stimulated dye movement between neurons and satellite glial cells (gap junction communication) [1]: greatly reduced; also recorded: decrease
level of connexin 26 staining ([2]; V1 and V2 regions, compared to animals treated with TNF-α and capsaicin): greatly decreased; also recorded: decrease
number of plaques observed between neurons and satellite glial cells ([2]; ganglia from TNF-α and capsaicin treated animals, higher magnification): much lower
active p38 levels [3]: greatly decreased; also recorded: blocked
amount of nuclear staining of active p38 [3]: greatly decreased
active p38 levels ([3]; listed as Tonabersat): lowered p38 levels to those observed in ganglia obtained from untreated control animals
trigeminal nerve activation ([4]; 10 mg/kg, animal models): block
trigeminal parasympathetic reflexes [4]: blockade

— patent US20130281524A1, “NOVEL TREATMENTS” (priority 2008, published 2013)
